We go through one compound from patent publication US9669005B2, “Use of naringenin in preparing drugs for preventing and/or treatment abdominal aortic aneurysm” (priority 2013, dated 2017).

Series [1] concerns abdominal aortic aneurysms in C57BL/6J mice with CaPO4 daubed infrarenal arteries. Briefly: Abdominal aortic aneurysm model induced by CaPO4 daubed infrarenal aortas, naringenin or doxycycline gavage. It is filed as in vivo. To be noted: CaPO4 daubed C57BL/6 mice; daily gavage 7 days; naringenin 50 mg/kg, doxycycline 100 mg/kg; average ± SD; CaPO4 + water 1.40±0.19, NaCl 0.77±0.06. Here is the method: 12-week old of male C57BL/6 mice were anesthetized via intraperitoneal injection of 0.1% pentobarbital sodium (injection according to body weight, […]). Infrarenal abdominal aortas were separated, and the separated infrarenal abdominal aortas were packaged by gauze (1 cm in width×3 cm in length) soaked in 0.5 M CaCl2 solution. After 10 minutes, the gauze was removed, gauze soaked in PBS was instead used to package the blood vessel for 5 min. CaCl2+and PO4^−3 in PBS can form CaPO4 crystal, that is, corresponding to daubing CaPO4 to the blood vessel. After packaging the blood vessel with gauze soaked in NaCl for 10 minutes, gauze soaked in PBS is instead used for 5 min, serving as NaCl daubed control group.
(§1) Gavage was started at the first day after surgery, and water, naringenin (50 mg/kg) (Sigma-Aldrich, St. Louis, Mo.) or doxycycline (100 mg/kg) (Sigma-Aldrich, St. Louis, Mo.) gavage were given on mice daily. Materials were removed from the mice 7 days after gavage. Mice were weighed, and blood was drawn from inner canthus by capillary, after centrifuged for 10 minutes at 6000 rotations, the supernatant was removed and blood fat was measured (kit is purchased from BIOSINO company). Then perfusion and washing were performed on mice using PBS. Blood vessels were separated, and four blood vessels were randomly chosen for each group for photographing. The results were shown in FIG. 1, wherein, NaCl was the group of daubing NaCl (n=11), CaPO4 was the group of daubing CaPO4 plus water feed (n=12), CaPO4+NGN was the group of daubing CaPO4 μlus naringenin gavage (n=11), and CaPO4+Dox was the group of daubing CaPO4 μlus doxycycline gavage (n=11).
The blood vessels were sliced, and the change of the diameters in infrarenal abdominal aortas of mice were identified by H.E. staining. […] The data in FIG. 2A were an average value±standard deviation.
The fracture degree of elastic lamina is also an index showing the severity of abdominal aortic aneurysms. The degradation of elastic lamina is divided into four grades. The first grade means that the degradation of elastic lamina is less than 25%, with the second grade of 25%-50%, the third grade of 50%-75%, and the fourth grade means the fracture is more than 75%. We used Gomori staining to identify the fracture situation of elastic lamina of infrarenal abdominal aortas of mice. […] The data in FIG. 2B were an average value±standard deviation.

Series [2] can be described thus: Body weight and blood fat of CaPO4 treated C57BL/6J mice. The format is in vivo. To be noted: CaPO4 treated C57BL/6J mice; gavage 7 days; naringenin 50 mg/kg, doxycycline 100 mg/kg. Here is the method: as §1

Regarding `C[C@H]1c2cccc(O)c2C(=O)C2=C(O)[C@]3(O)C(=O)C(C(N)=O)=C(O)[C@@H](N(C)C)[C@@H]3[C@@H](O)[C@@H]21` [doxycycline, reference compound], the “diameters of infrarenal abdominal aortas (H.E. staining)” value in series [1] was 0.99±0.18 mm. In series [2], this compound yielded a Body weight of 21.0 ± 1.89 g, a Cholesterol of 3.49 ± 0.64 mmol and a Triglyceride of 1.07 ± 0.32 mmol.
